Measurements as given in ChEMBL document CHEMBL4219190, “Studies on synthesis of novel pyrido[2,3-d]pyrimidine derivatives, evaluation of their antimicrobial activity and molecular docking” (Bioorg Med Chem Lett, 2018).
Values after ≈ are worked out from the molar mass of the structure shown. Active and inactive are the calls of the source. The rule behind the calls is not given here.

Experiments:
Assay type in all cases: functional
[1] = test system: Nakaseomyces glabratus; experiment: Fungicidal activity against Candida glabrata MTCC 3019 incubated for 24 hrs followed by transfer of microbial suspension to Sabouraud dextrose agar plates and measured after 24 hrs post transfer; conditions: MTCC 3019, 24 h
[2] = test system: Candida albicans; experiment: Fungicidal activity against Candida albicans MTCC 7315 incubated for 24 hrs followed by transfer of microbial suspension to Sabouraud dextrose agar plates and measured after 24 hrs post transfer; conditions: MTCC 7315, 24 h
[3] = test system: Candida albicans; experiment: Fungicidal activity against Candida albicans MTCC 854 incubated for 24 hrs followed by transfer of microbial suspension to Sabouraud dextrose agar plates and measured after 24 hrs post transfer; conditions: MTCC 854, 24 h
[4] = test system: Staphylococcus aureus; experiment: Antibacterial activity against Staphylococcus aureus MTCC 96 after 24 hrs by well diffusion method
[5] = test system: Candida albicans; experiment: Fungicidal activity against Candida albicans MTCC 1637 incubated for 24 hrs followed by transfer of microbial suspension to Sabouraud dextrose agar plates and measured after 24 hrs post transfer
[6] = test system: Candida albicans; experiment: Antifungal activity against Candida albicans MTCC 7315 after 24 hrs by well diffusion method; conditions: MTCC 7315, 24 h
[7] = test system: Candida albicans; experiment: Fungicidal activity against Candida albicans MTCC 183 incubated for 24 hrs followed by transfer of microbial suspension to Sabouraud dextrose agar plates and measured after 24 hrs post transfer; conditions: MTCC 183, 24 h
[8] = test system: Staphylococcus aureus; experiment: Antibacterial activity against Staphylococcus aureus MLS16 MTCC 2940 after 24 hrs by well diffusion method
[9] = test system: Pichia sporocuriosa; experiment: Antifungal activity against Issatchenkia hanoiensis MTCC 4755 after 24 hrs by well diffusion method; conditions: MTCC 4755, 24 h
[10] = test system: Candida parapsilosis; experiment: Fungicidal activity against Candida parapsilosis MTCC 1744 incubated for 24 hrs followed by transfer of microbial suspension to Sabouraud dextrose agar plates and measured after 24 hrs post transfer
[11] = test system: Candida albicans; experiment: Fungicidal activity against Candida albicans MTCC 4748 incubated for 24 hrs followed by transfer of microbial suspension to Sabouraud dextrose agar plates and measured after 24 hrs post transfer
[12] = test system: Nakaseomyces glabratus; experiment: Antifungal activity against Candida glabrata MTCC 3019 after 24 hrs by well diffusion method; conditions: MTCC 3019, 24 h
[13] = test system: Candida albicans; experiment: Antifungal activity against Candida albicans MTCC 3017 after 24 hrs by well diffusion method; conditions: MTCC 3017, 24 h
[14] = test system: Candida albicans; experiment: Fungicidal activity against Candida albicans MTCC 3018 incubated for 24 hrs followed by transfer of microbial suspension to Sabouraud dextrose agar plates and measured after 24 hrs post transfer
[15] = test system: Candida albicans; experiment: Fungicidal activity against Candida albicans MTCC 227 incubated for 24 hrs followed by transfer of microbial suspension to Sabouraud dextrose agar plates and measured after 24 hrs post transfer; conditions: MTCC 227, 24 h
[16] = test system: Candida parapsilosis; experiment: Antifungal activity against Candida parapsilosis MTCC 1744 after 24 hrs by well diffusion method
[17] = test system: Pichia kudriavzevii; experiment: Antifungal activity against Candida krusei MTCC 3020 after 24 hrs by well diffusion method; conditions: MTCC 3020, 24 h
[18] = test system: Bacillus subtilis; experiment: Antibacterial activity against Bacillus subtilis MTCC 121 after 24 hrs by well diffusion method
[19] = test system: Pichia sporocuriosa; experiment: Fungicidal activity against Issatchenkia hanoiensis MTCC 4755 incubated for 24 hrs followed by transfer of microbial suspension to Sabouraud dextrose agar plates and measured after 24 hrs post transfer; conditions: MTCC 4755, 24 h
[20] = test system: Candida albicans; experiment: Antifungal activity against Candida albicans MTCC 3958 after 24 hrs by well diffusion method
[21] = test system: [Candida] aaseri; experiment: Fungicidal activity against Candida aaseri MTCC 1962 incubated for 24 hrs followed by transfer of microbial suspension to Sabouraud dextrose agar plates and measured after 24 hrs post transfer; conditions: Yamadazyma aaseri, MTCC 1962, 24 h
[22] = test system: Candida albicans; experiment: Fungicidal activity against Candida albicans MTCC 3017 incubated for 24 hrs followed by transfer of microbial suspension to Sabouraud dextrose agar plates and measured after 24 hrs post transfer; conditions: MTCC 3017, 24 h
[23] = test system: Candida albicans; experiment: Antifungal activity against Candida albicans MTCC 1637 after 24 hrs by well diffusion method
[24] = test system: Candida albicans; experiment: Antifungal activity against Candida albicans MTCC 3018 after 24 hrs by well diffusion method
[25] = test system: Candida albicans; experiment: Antifungal activity against Candida albicans MTCC 4748 after 24 hrs by well diffusion method
[26] = test system: Raoultella planticola; experiment: Antibacterial activity against Klebsiella planticola MTCC 530 after 24 hrs by well diffusion method
[27] = test system: Candida albicans; experiment: Antifungal activity against Candida albicans MTCC 854 after 24 hrs by well diffusion method; conditions: MTCC 854, 24 h
[28] = test system: Candida albicans; experiment: Fungicidal activity against Candida albicans MTCC 3958 incubated for 24 hrs followed by transfer of microbial suspension to Sabouraud dextrose agar plates and measured after 24 hrs post transfer
[29] = test system: Escherichia coli; experiment: Antibacterial activity against Escherichia coli MTCC 739 after 24 hrs by well diffusion method
[30] = test system: Micrococcus luteus; experiment: Antibacterial activity against Micrococcus luteus MTCC 2470 after 24 hrs by well diffusion method
[31] = test system: Candida albicans; experiment: Antifungal activity against Candida albicans MTCC 183 after 24 hrs by well diffusion method; conditions: MTCC 183, 24 h
[32] = test system: Pseudomonas aeruginosa; experiment: Antibacterial activity against Pseudomonas aeruginosa MTCC 2453 after 24 hrs by well diffusion method
[33] = test system: [Candida] aaseri; experiment: Antifungal activity against Candida aaseri MTCC 1962 after 24 hrs by well diffusion method; conditions: Yamadazyma aaseri, MTCC 1962, 24 h
[34] = test system: Pichia kudriavzevii; experiment: Fungicidal activity against Candida krusei MTCC 3020 incubated for 24 hrs followed by transfer of microbial suspension to Sabouraud dextrose agar plates and measured after 24 hrs post transfer; conditions: MTCC 3020, 24 h
[35] = test system: Candida albicans; experiment: Antifungal activity against Candida albicans MTCC 227 after 24 hrs by well diffusion method; conditions: MTCC 227, 24 h

CCCNC(=O)c1nc(-c2ccccc2)c2c(C(F)(F)F)cc(-c3ccccc3)nc2n1
MFC [1]: 15.6 µg/mL (≈ 35.7 µM) | MFC [2]: 31.2 µg/mL (≈ 71.5 µM) | MFC [3]: 62.5 µg/mL (≈ 143 µM) | MIC [4]: inactive | MFC [5]: inactive | MIC [6]: 15.6 µg/mL (≈ 35.7 µM) | MFC [7]: 31.2 µg/mL (≈ 71.5 µM) | MIC [8]: inactive | MIC [9]: 31.2 µg/mL (≈ 71.5 µM) | MFC [10]: inactive | MFC [11]: inactive | MIC [12]: 7.8 µg/mL (≈ 17.9 µM) | MIC [13]: 15.6 µg/mL (≈ 35.7 µM) | MFC [14]: inactive | MFC [15]: 31.2 µg/mL (≈ 71.5 µM) | MIC [16]: inactive | MIC [17]: 15.6 µg/mL (≈ 35.7 µM) | MIC [18]: inactive | MFC [19]: 62.5 µg/mL (≈ 143 µM) | MIC [20]: inactive | MFC [21]: 15.6 µg/mL (≈ 35.7 µM) | MFC [22]: 15.6 µg/mL (≈ 35.7 µM) | MIC [23]: inactive | MIC [24]: inactive | MIC [25]: inactive | MIC [26]: inactive | MIC [27]: 31.2 µg/mL (≈ 71.5 µM) | MFC [28]: inactive | MIC [29]: inactive | MIC [30]: inactive | MIC [31]: 15.6 µg/mL (≈ 35.7 µM) | MIC [32]: inactive | MIC [33]: 15.6 µg/mL (≈ 35.7 µM) | MFC [34]: 31.2 µg/mL (≈ 71.5 µM) | MIC [35]: 31.2 µg/mL (≈ 71.5 µM)
